Measured values from PubChem BioAssay AID387.

Molecular target: Farnesyl pyrophosphate synthase (Homo sapiens) (UniProt P14324)
Assay: ligand-induced stabilization of human FDPS – biophysical, DSF, SYPRO orange, purified protein (AID 387)
Details: DSF thermal shift, at 10 µM, protein 2 µM, buffer 10 mM HEPES, pH 7.5, NaCl 150 mM, MgCl4 50 µM, hits give high values

Sequence of Farnesyl pyrophosphate synthase (Homo sapiens) (P14324 whole entry, looked up): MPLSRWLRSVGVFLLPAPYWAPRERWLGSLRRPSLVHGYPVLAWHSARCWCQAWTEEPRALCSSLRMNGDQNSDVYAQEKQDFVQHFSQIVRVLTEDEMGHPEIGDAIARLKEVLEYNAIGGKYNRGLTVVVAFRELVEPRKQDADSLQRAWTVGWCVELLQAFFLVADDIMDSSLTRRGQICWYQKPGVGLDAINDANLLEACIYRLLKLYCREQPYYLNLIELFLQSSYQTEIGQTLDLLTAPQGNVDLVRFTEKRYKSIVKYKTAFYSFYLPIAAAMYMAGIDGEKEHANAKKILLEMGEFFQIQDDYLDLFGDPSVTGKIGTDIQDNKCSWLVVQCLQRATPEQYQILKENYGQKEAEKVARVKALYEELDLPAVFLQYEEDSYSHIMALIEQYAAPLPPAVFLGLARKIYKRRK

O=[P+](O)C(O)(Cc1cccnc1)P(=O)(O)O (stereo unspecified) showed a Tm shift of 4.13 Celsius.
